Measured values: US8507660B2 (priority 2009, dated 2013)

Assay: Storage stability of sialyl phosphate donors
Format: physicochemical
Conditions: −20° C., several months
Experimental: The reaction was complete in 5 h to give a mixture of α- and β-anomers. The sialyl α-phosphate 2a and sialyl β-phosphate 2b can be easily separated by silica gel column chromatography and are both stable at −20° C. for several months.

SMILES: CCCCOP(=O)(OCCCC)OC1(C(=O)OC)CC(OC(C)=O)[C@@H](NC(C)=O)C([C@H](OC(C)=O)[C@@H](COC(C)=O)OC(C)=O)O1 (stereo partly shown) [2a]
- stability on storage: stable
